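Assay format: 96-well plates, 48-hour exposure. GI50 = concentration required for 50% inhibition of growth.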 The source made the active and inactive calls. Rule as the data show it: active = GI50 up to about 1.1 µM and inactive = higher.
Columns and labels:
Assay in all cases: NCI tumour cell line growth inhibition, 48 h
SK-MEL-28 = tested on: SK-MEL-28
HCT-15 = tested on: HCT-15
SNB-75 = tested on: SNB-75
SK-MEL-2 = tested on: SK-MEL-2
RPMI-8226 = tested on: RPMI-8226
OVCAR-8 = tested on: OVCAR-8
SR = tested on: SR
SNB-78 = tested on: SNB-78
COLO 205 = tested on: COLO 205
HOP-18 = tested on: HOP-18
MOLT-4 = tested on: MOLT-4
UACC-257 = tested on: UACC-257
U-251 = tested on: U-251
NCI-H522 = tested on: NCI-H522
XF498 = tested on: XF498
M14 = tested on: M14
Malme-3M = tested on: Malme-3M
IGROV-1 = tested on: IGROV-1
SK-OV-3 = tested on: SK-OV-3
KM12 = tested on: KM12
SNB-19 = tested on: SNB-19
CAKI-1 = tested on: CAKI-1
SF-539 = tested on: SF-539
HT-29 = tested on: HT-29
K562 = tested on: K562
DMS-273 = tested on: DMS-273
TK-10 = tested on: TK-10
UACC-62 = tested on: UACC-62
786-0 = tested on: 786-0
HOP-62 = tested on: HOP-62
LXFL 529 = tested on: LXFL 529
NCI-H226 = tested on: NCI-H226
UO-31 = tested on: UO-31
SF-268 = tested on: SF-268
SK-MEL-5 = tested on: SK-MEL-5
NCI-H23 = tested on: NCI-H23
HOP-92 = tested on: HOP-92
A549 = tested on: A549
OVCAR-5 = tested on: OVCAR-5
HCT-116 = tested on: HCT-116
ACHN = tested on: ACHN
KM-20L2 = tested on: KM-20L2
SN12C = tested on: SN12C
A498 = tested on: A498
OVCAR-4 = tested on: OVCAR-4
DMS-114 = tested on: DMS-114
HL-60 = tested on: HL-60
NCI-H460 = tested on: NCI-H460
SF-295 = tested on: SF-295
RXF 393 = tested on: RXF 393
EKVX = tested on: EKVX
DLD-1 = tested on: DLD-1
CCRF-CEM = tested on: CCRF-CEM
MCF7 = tested on: MCF7
M19-MEL = tested on: M19-MEL
OVCAR-3 = tested on: OVCAR-3
NCI/ADR-RES = tested on: NCI/ADR-RES
LOX IMVI = tested on: LOX IMVI
HCC 2998 = tested on: HCC 2998
SW-620 = tested on: SW-620

Measured: GI50

CC1(C)OCC([C@H]2CC23SCCCS3)O1 (stereo partly specified)
> 100 µM: HCT-15
inactive: SK-MEL-28 > 100 µM | SNB-75 > 100 µM | SK-MEL-2 > 100 µM | RPMI-8226 > 100 µM | OVCAR-8 > 100 µM | SR > 100 µM | SNB-78 > 100 µM | COLO 205 > 100 µM | HOP-18 > 100 µM | MOLT-4 > 100 µM | UACC-257 > 100 µM | U-251 > 100 µM | NCI-H522 > 100 µM | XF498 > 100 µM | M14 > 100 µM | Malme-3M > 100 µM | IGROV-1 > 100 µM | SK-OV-3 > 100 µM | KM12 > 100 µM | SNB-19 > 100 µM | CAKI-1 > 100 µM | SF-539 > 100 µM | HT-29 > 100 µM | K562 > 100 µM | DMS-273 > 100 µM | TK-10 > 100 µM | UACC-62 > 100 µM | 786-0 > 100 µM | HOP-62 > 100 µM | LXFL 529 > 100 µM | NCI-H226 > 100 µM | UO-31 > 100 µM | SF-268 > 100 µM | SK-MEL-5 > 100 µM | NCI-H23 > 100 µM | HOP-92 51.8 µM | A549 > 100 µM | OVCAR-5 > 100 µM | HCT-116 > 100 µM | ACHN > 100 µM | KM-20L2 > 100 µM | SN12C > 100 µM | A498 > 100 µM | OVCAR-4 > 100 µM | DMS-114 > 100 µM | HL-60 > 100 µM | NCI-H460 > 100 µM | SF-295 > 100 µM | RXF 393 > 100 µM | EKVX > 100 µM | DLD-1 > 100 µM

CC(=O)OC1CCC2(C)C3CCC4(C)C(c5ccc(=O)oc5)CC5OC54C3CCC2(O)C1 (stereo unspecified)
inactive: SK-MEL-28 4.27 µM | SK-MEL-2 4.86 µM | OVCAR-8 1.15 µM | SNB-78 1.14 µM | COLO 205 4.28 µM | MCF7 2.31 µM | UACC-257 3.04 µM | U-251 2.21 µM | XF498 2.92 µM | IGROV-1 2.61 µM | SK-OV-3 4.49 µM | KM12 3.21 µM | SNB-19 5.18 µM | M19-MEL 2.21 µM | HT-29 2.19 µM | UACC-62 2.69 µM | NCI-H226 4.72 µM | UO-31 2.49 µM | HOP-92 2.45 µM | OVCAR-5 5.81 µM | KM-20L2 2.15 µM | A498 1.55 µM | LOX IMVI 1.63 µM | OVCAR-4 2.3 µM | HCC 2998 2.98 µM | SF-295 1.15 µM | SW-620 1.21 µM
active: SNB-75 1.06 µM | RPMI-8226 0.869 µM | HOP-18 0.461 µM | CCRF-CEM 0.631 µM | MOLT-4 0.348 µM | NCI-H522 0.53 µM | Malme-3M 0.895 µM | CAKI-1 0.738 µM | SF-539 0.75 µM | K562 0.979 µM | DMS-273 0.798 µM | HOP-62 0.811 µM | OVCAR-3 0.59 µM | NCI/ADR-RES 1.08 µM | SF-268 0.621 µM | SK-MEL-5 0.714 µM | NCI-H23 0.649 µM | A549 0.495 µM | HCT-116 0.706 µM | SN12C 0.617 µM | DMS-114 0.109 µM | HL-60 0.522 µM | NCI-H460 0.579 µM | RXF 393 0.479 µM | EKVX 0.887 µM | DLD-1 0.521 µM
1.9 µM: HCT-15

— ChEMBL document CHEMBL1201862, “PubChem BioAssay data set” (2004)
